Data taken from PMC11233931, “Remodeling tumor‐associated macrophage for anti‐cancer effects by rational design of irreversible inhibition of mitogen‐activated protein kinase‐activated protein kinase 2” (MedComm, 2024).

Experiments:
Test in all cases: Eurofins kinase selectivity profile against 380 other human recombinant kinases (Table S2)
Type in all cases: biochemical
[1] = biological target: T1, 380 human recombinant protein kinases (Homo sapiens, UniProt P06493); conditions: CDK1/cyclinB(h), read-out: Inhibition rate
T1 construct: purchased Eurofins (Celle Lévescault)
T1 sequence (P06493 whole entry): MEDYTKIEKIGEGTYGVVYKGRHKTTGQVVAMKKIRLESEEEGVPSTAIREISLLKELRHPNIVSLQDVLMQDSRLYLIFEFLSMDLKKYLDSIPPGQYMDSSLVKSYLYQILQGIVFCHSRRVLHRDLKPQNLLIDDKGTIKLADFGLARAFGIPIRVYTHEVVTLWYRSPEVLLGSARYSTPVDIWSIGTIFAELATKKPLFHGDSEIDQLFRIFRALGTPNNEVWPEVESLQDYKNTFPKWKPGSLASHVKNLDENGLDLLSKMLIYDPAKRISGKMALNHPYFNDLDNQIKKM
Outline: (§1)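 Off-target profiling: one compound assayed by a commercial provider over 380 recombinant human protein kinases at various concentrations.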

[2] = biological target: T2, 380 human recombinant protein kinases (Homo sapiens, UniProt P09769); conditions: Fgr(h), read-out: Inhibition rate
T2 construct: purchased Eurofins (Celle Lévescault)
T2 sequence (P09769 whole entry): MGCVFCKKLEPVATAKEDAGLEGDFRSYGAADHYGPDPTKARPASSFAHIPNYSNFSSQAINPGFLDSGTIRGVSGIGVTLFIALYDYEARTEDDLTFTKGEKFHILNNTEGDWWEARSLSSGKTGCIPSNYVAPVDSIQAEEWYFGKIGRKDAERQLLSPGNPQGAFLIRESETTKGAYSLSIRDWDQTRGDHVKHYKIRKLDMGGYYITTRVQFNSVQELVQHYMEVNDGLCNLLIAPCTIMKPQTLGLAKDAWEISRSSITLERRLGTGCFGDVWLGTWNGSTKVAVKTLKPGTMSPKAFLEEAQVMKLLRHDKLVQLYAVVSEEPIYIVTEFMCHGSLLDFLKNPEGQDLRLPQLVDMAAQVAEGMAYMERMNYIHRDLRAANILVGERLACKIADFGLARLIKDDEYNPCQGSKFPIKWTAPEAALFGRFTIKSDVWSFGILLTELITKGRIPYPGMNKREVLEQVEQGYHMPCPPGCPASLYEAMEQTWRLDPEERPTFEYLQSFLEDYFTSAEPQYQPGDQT
Outline: as §1

[3] = biological target: T3, 380 human recombinant protein kinases (Homo sapiens, UniProt P36897); conditions: TGFBR1(h), read-out: Inhibition rate (%)
T3 construct: purchased Eurofins (Celle Lévescault)
T3 sequence (P36897 34-503): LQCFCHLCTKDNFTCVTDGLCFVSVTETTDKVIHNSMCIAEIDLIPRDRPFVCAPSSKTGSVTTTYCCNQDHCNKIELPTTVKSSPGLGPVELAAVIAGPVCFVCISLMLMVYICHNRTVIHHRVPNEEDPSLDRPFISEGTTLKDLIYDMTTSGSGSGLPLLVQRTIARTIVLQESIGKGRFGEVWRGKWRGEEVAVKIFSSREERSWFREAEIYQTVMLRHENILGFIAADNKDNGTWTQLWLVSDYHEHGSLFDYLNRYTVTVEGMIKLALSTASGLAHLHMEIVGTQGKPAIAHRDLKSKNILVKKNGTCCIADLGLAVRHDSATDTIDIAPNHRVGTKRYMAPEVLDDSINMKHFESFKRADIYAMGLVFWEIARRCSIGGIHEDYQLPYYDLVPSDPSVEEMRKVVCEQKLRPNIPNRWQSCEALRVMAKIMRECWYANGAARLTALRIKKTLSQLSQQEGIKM
Outline: as §1

[4] = biological target: T4, 380 human recombinant protein kinases (Homo sapiens, UniProt P49761); conditions: CLK3(h), read-out: Inhibition rate
T4 construct: purchased Eurofins (Celle Lévescault)
T4 sequence (P49761 whole entry): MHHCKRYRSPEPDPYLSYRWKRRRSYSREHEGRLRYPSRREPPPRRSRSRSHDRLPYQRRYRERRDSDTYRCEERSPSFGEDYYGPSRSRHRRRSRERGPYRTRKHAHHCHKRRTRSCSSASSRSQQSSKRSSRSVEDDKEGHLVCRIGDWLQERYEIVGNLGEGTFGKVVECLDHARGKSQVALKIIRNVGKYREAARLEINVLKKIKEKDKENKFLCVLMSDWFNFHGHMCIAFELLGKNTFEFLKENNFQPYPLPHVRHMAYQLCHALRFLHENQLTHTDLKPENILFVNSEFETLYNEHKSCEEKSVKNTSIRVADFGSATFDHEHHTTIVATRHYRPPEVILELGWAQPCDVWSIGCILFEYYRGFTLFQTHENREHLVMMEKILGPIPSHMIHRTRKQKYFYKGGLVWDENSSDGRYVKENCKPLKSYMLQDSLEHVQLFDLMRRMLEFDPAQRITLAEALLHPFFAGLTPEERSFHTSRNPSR
Outline: as §1

[5] = biological target: T5, 380 human recombinant protein kinases (Homo sapiens, UniProt Q9UBE8); conditions: NLK(h), read-out: Inhibition rate
T5 construct: purchased Eurofins (Celle Lévescault)
T5 sequence (Q9UBE8 1-527): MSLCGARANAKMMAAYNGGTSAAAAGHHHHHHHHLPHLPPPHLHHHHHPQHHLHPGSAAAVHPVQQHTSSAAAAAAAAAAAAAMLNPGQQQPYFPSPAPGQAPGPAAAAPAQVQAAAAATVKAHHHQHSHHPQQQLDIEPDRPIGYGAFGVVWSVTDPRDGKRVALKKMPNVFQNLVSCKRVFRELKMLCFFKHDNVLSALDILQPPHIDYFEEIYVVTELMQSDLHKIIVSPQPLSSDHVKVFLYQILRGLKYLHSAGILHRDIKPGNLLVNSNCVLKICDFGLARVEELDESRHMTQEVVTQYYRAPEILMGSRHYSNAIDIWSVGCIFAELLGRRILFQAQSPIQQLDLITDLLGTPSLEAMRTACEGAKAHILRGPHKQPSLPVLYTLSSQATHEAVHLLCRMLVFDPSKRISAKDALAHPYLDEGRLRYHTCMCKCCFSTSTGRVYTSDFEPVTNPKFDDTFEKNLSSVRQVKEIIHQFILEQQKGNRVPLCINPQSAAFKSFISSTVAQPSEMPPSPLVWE
Outline: as §1

C=CC(=O)Nc1cc(-c2cc(-c3cc4c([nH]3)CCNC4=O)ccn2)ccc1OC(F)(F)F [compound 11]
inhibition at 0.01 µM ([1]; 10 nM): 0%
inhibition at 0.1 µM ([1]; 100 nM): 10%
inhibition at 1 µM ([1]; 1000 nM): 43%
inhibition at 0.01 µM ([2]; 10 nM): 1%
inhibition at 0.1 µM ([2]; 100 nM): 0%
inhibition at 1 µM ([2]; 1000 nM): 0%
inhibition at 0.01 µM ([3]; 10 nM): -7%
inhibition at 0.1 µM ([3]; 100 nM): -2%
inhibition at 1 µM ([3]; 1000 nM): -4%
inhibition at 0.01 µM ([4]; 10 nM): -3%
inhibition at 0.1 µM ([4]; 100 nM): 3%
inhibition at 1 µM ([4]; 1000 nM): 10%
inhibition at 0.01 µM ([5]; 10 nM): 6%
inhibition at 0.1 µM ([5]; 100 nM): 16%
inhibition at 1 µM ([5]; 1000 nM): 42%
